Reference: patent US9567302B2, “Carbamate compounds and of making and using same” (Abide Therapeutics, Inc., priority 2012, dated 2017)

Experiments:
Format in all cases: biochemical
Parameters in all cases: from tissue; host or cells: mouse brain membrane fraction
[1] = molecular target: T1, FAAH (Mus musculus, UniProt O08914); assay: In vitro competitive activity-based protein profiling (FP-Rh), mouse FAAH; details: Table 1, mouse proteome, 30 min preincubation at 37° C.
T1 sequence (O08914 1-579): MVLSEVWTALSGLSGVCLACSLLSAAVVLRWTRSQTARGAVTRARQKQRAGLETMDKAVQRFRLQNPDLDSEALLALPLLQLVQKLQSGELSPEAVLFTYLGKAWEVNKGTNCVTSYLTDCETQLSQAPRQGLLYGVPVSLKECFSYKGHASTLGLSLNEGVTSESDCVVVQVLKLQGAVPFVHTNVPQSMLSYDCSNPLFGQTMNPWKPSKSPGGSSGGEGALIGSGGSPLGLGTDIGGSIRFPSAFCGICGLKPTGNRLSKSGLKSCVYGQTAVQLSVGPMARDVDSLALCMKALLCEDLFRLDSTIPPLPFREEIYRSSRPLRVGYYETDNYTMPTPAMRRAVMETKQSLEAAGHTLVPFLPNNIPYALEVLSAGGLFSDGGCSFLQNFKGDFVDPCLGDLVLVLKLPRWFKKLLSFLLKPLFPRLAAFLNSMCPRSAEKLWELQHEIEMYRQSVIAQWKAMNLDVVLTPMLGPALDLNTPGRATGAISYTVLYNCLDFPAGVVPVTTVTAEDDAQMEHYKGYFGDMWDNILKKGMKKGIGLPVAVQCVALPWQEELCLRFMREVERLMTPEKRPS
Description: (§1) In Vitro Competitive Activity-Based Protein Profiling.
(§2) Proteomes (mouse brain membrane fraction or cell lysates) (50 μL, 1.0 mg/ml total protein concentration) were preincubated with varying concentrations of inhibitors at 37° C. After 30 min, FP-Rh (1.0 μL, 50 μM in DMSO) was added and the mixture was incubated for another 30 min at 37° C. Reactions were quenched with SDS loading buffer (50 μL—4×) and run on SDS-PAGE.

[2] = molecular target: T2, ABHD6 (Mus musculus, UniProt Q8R2Y0); assay: In vitro competitive activity-based protein profiling (FP-Rh), mouse ABHD6; details: Table 1, mouse proteome, 30 min preincubation at 37° C.
T2 sequence (Q8R2Y0 1-336): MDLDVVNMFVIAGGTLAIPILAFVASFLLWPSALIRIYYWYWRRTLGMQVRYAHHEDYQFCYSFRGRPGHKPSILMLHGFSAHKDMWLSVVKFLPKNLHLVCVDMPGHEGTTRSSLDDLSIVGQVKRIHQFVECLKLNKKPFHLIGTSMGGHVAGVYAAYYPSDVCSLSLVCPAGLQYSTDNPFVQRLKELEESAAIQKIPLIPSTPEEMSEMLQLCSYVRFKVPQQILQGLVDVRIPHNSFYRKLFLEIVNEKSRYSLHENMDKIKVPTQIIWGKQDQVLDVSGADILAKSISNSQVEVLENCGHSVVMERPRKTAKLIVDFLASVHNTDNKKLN
Description: as §1, §2

[3] = molecular target: T3, MAGL (Mus musculus, UniProt O35678); assay: In vitro competitive activity-based protein profiling (FP-Rh), mouse MAGL; details: 30 min preincubation at 37° C.
T3 sequence (O35678 1-303): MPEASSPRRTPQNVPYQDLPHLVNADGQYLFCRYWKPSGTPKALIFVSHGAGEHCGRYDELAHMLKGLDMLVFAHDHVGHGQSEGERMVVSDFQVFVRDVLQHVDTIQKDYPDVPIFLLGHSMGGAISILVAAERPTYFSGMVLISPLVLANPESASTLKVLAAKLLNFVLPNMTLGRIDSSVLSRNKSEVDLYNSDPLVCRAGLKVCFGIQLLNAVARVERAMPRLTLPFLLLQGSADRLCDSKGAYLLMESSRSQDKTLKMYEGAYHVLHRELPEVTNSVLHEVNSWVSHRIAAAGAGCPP
Description: as §1, §2

IC50 [1] | IC50 [2] | IC50 ([3]; Table 1, mouse proteome) | IC50 ([3]; Table 2, mouse proteome) | SMILES
> 10000 nM | 100 to 1000 nM |  |  | O=C(ON1C(=O)CCC1=O)N1CCN(C(c2ccc(Cl)cc2)c2ccc(Cl)cc2)CC1 [Example 2, 2,5-Dioxopyrrolidin-1-yl 4-[bis(4-chlorophenyl)methyl]piperazine-1-carboxylate]
> 10000 nM | > 10000 nM | > 10000 nM |  | CC(C)(C)OC(=O)N1CCN(C(=O)ON2C(=O)CCC2=O)CC1 [Example 4, 1-tert-Butyl 4-(2,5-dioxopyrrolidin-1-yl) piperazine-1,4-dicarboxylate]
> 10000 nM | > 10000 nM | > 10000 nM |  | CC1CCCCN1C(=O)ON1C(=O)CCC1=O (centres unmarked) [Example 10, 2,5-Dioxopyrrolidin-1-yl 2-methylpiperidine-1-carboxylate]
> 10000 nM | > 10000 nM | > 10000 nM |  | O=C1CCC(=O)N1OC(=O)N1CCCCC1CO (centres unmarked) [Example 11, 2,5-Dioxopyrrolidin-1-yl 2-(hydroxymethyl)piperidine-1-carboxylate]
> 10000 nM | > 10000 nM | > 10000 nM |  | O=C(C1CCCCN1C(=O)ON1C(=O)CCC1=O)N1CCOCC1 (centres unmarked) [Example 16, 2,5-Dioxopyrrolidin-1-yl 2-(morpholine-4-carbonyl)piperidine-1-carboxylate]
> 10000 nM |  | > 10000 nM |  | O=C(ON1C(=O)CCC1=O)N1CCCCC1 [Example 17, 2,5-Dioxopyrrolidin-1-yl piperidine-1-carboxylate]
> 10000 nM | 1000 to 10000 nM | 100 to 1000 nM |  | Cc1cc(N2CCN(C(=O)ON3C(=O)CCC3=O)CC2)c2ccccc2n1 [Example 18, 2,5-Dioxopyrrolidin-1-yl 4-(2-methylquinolin-4-yl)piperazine-1-carboxylate]
1000 to 10000 nM | 100 to 1000 nM | 100 to 1000 nM |  | O=C(ON1C(=O)CCC1=O)N1CCC(Cc2ccccc2)CC1 [Example 21, 2,5-Dioxopyrrolidin-1-yl 4-benzylpiperidine-1-carboxylate]
> 10000 nM | > 10000 nM | > 10000 nM |  | O=C1CCC(=O)N1OC(=O)N1CCCCC1C(F)(F)F (centres unmarked) [Example 24, 2,5-Dioxopyrrolidin-1-yl 2-(trifluoromethyl)piperidine-1-carboxylate]
> 10000 nM | > 10000 nM | > 10000 nM |  | C#CCCC(=O)N1CCN(C(=O)ON2C(=O)CCC2=O)CC1 [Example 26, 2,5-Dioxopyrrolidin-1-yl 4-(pent-4-ynoyl)piperazine-1-carboxylate]
 |  |  | 1000 to 10000 nM | Cc1cc(N2CCOCC2)ccc1CN1CCN(C(=O)ON2C(=O)CCC2=O)CC1 [Example 63, 2,5-Dioxopyrrolidin-1-yl 4-(2-methyl-4-morpholinobenzyl)piperazine-1-carboxylate]
 |  |  | 100 to 1000 nM | O=C(ON1C(=O)CCC1=O)N1CCN(Cc2ccc(Cl)cc2)CC1 [Example 64, 2,5-Dioxopyrrolidin-1-yl 4-(4-chlorobenzyl)piperazine-1-carboxylate]
 |  |  | < 100 nM | O=C(ON1C(=O)CCC1=O)N1CCN(Cc2ccc(Br)cc2N2CCCC2)CC1 [Example 72, 2,5-Dioxopyrrolidin-1-yl 4-(4-bromo-2-(pyrrolidin-1-yl)benzyl)piperazine-1-carboxylate]

Continued, compound first:

SMILES | IC50 [1] | IC50 [2] | IC50 ([3]; Table 1, mouse proteome) | IC50 ([3]; Table 2, mouse proteome)
O=C(NCCc1ccc(Oc2ccccc2)cc1)ON1C(=O)CCC1=O [Example 6, 2,5-Dioxopyrrolidin-1-yl N-[2-(4-phenoxyphenyl)ethyl]carbamate] | 100 to 1000 nM | > 10000 nM | > 10000 nM | 
CCN(Cc1ccccc1)C(=O)ON1C(=O)CCC1=O [Example 9, 2,5-Dioxopyrrolidin-1-yl N-benzyl-N-ethylcarbamate] | > 10000 nM | > 10000 nM | > 10000 nM | 
CN(Cc1cccc(-c2ccncc2)c1)C(=O)ON1C(=O)CCC1=O [Example 12, 2,5-Dioxopyrrolidin-1-yl N-methyl-N-{[3-(pyridin-4-yl)phenyl]methyl}carbamate] | > 10000 nM | 100 to 1000 nM | 1000 to 10000 nM | 
CN(Cc1cccc(-c2cccnc2)c1)C(=O)ON1C(=O)CCC1=O [Example 13, 2,5-Dioxopyrrolidin-1-yl N-methyl-N-{[3-(pyridin-3-yl)phenyl]methyl}carbamate] | > 10000 nM | > 10000 nM | > 10000 nM | 
Cc1nc(-c2cccc(CN(C)C(=O)ON3C(=O)CCC3=O)c2)no1 [Example 14, 2,5-Dioxopyrrolidin-1-yl N-methyl-N-{[3-(5-methyl-1,2,4-oxadiazol-3-yl)phenyl]methyl}carbamate] | > 10000 nM | 100 to 1000 nM | 1000 to 10000 nM | 
CN(CCc1ccccc1)C(=O)ON1C(=O)CCC1=O [Example 15, 2,5-Dioxopyrrolidin-1-yl N-methyl-N-(2-phenylethyl)carbamate] | > 10000 nM | > 10000 nM | > 10000 nM | 
CCCN(Cc1ccc(N2CCCCC2)cc1)C(=O)ON1C(=O)CCC1=O [Example 19, 2,5-Dioxopyrrolidin-1-yl N-{[4-(piperidin-1-yl)phenyl]methyl}-N-propylcarbamate] | > 10000 nM | > 10000 nM | > 10000 nM | 
O=C(NC1CCCc2ccccc21)ON1C(=O)CCC1=O (centres unmarked) [Example 20, 2,5-Dioxopyrrolidin-1-yl N-(1,2,3,4-tetrahydronaphthalen-1-yl)carbamate] | > 10000 nM | > 10000 nM | > 10000 nM | 
O=C1CCC(=O)N1OC(=O)N1CCCCC1Cc1ccccc1 (centres unmarked) [Example 22, 2,5-Dioxopyrrolidin-1-yl 2-benzylpiperidine-1-carboxylate] | > 10000 nM | > 10000 nM | > 10000 nM | 
O=C1CCC(=O)N1OC(=O)N1CCCCC1c1ccccc1 (centres unmarked) [Example 23, 2,5-Dioxopyrrolidin-1-yl 2-phenylpiperidine-1-carboxylate] | > 10000 nM | > 10000 nM | > 10000 nM | 
O=C1CCC(=O)N1OC(=O)N1CCCCC1CCc1ccccc1 (centres unmarked) [Example 25, 2,5-Dioxopyrrolidin-1-yl 2-(2-phenylethyl)piperidine-1-carboxylate] | > 10000 nM | > 10000 nM | > 10000 nM | 
O=C(NCCc1ccc2ccccc2c1)ON1C(=O)CCC1=O [Example 27, 2,5-Dioxopyrrolidin-1-yl N-[2-(naphthalen-2-yl)ethyl]carbamate] |  | > 10000 nM | > 10000 nM | 
O=C(ON1C(=O)CCC1=O)N1CC[C@@H](OCc2ccccc2)C1 [Example 39, 2,5-Dioxopyrrolidin-1-yl (3R)-3-(benzyloxy)pyrrolidine-1-carboxylate] | > 10000 nM |  | > 10000 nM | 
O=C(ON1C(=O)CCC1=O)N1CC[C@H](OCc2ccccc2)C1 [Example 40, 2,5-Dioxopyrrolidin-1-yl (3S)-3-(benzyloxy)pyrrolidine-1-carboxylate] | > 10000 nM |  | > 10000 nM | 
CN(C)C(=O)ON1C(=O)CNC1=O [Example 58, 2,5-Dioxoimidazolidin-1-yl dimethylcarbamate] | > 10000 nM |  |  | 
CC1CN(C(=O)ON2C(=O)CCC2=O)CCN1C(c1ccc(Cl)cc1)c1ccc(Cl)cc1 (centres unmarked) [Example 151, 2,5-Dioxopyrrolidin-1-yl 4-[bis(4-chlorophenyl)methyl]-3-methylpiperazine-1-carboxylate] |  |  |  | 100 to 1000 nM
CC1CN(C(=O)ON2C(=O)CCC2=O)CCN1Cc1ccc(-c2ccccc2)cc1 (centres unmarked) [Example 160, 2,5-Dioxopyrrolidin-1-yl 3-methyl-4-[(4-phenylphenyl)methyl]piperazine-1-carboxylate] |  |  |  | 100 to 1000 nM
O=C(ON1C(=O)CCC1=O)N1CCN(Cc2ccc(-c3ccccc3)cc2N2CCOCC2)CC1 [Example 161, 2,5-Dioxopyrrolidin-1-yl 4-((3-morpholino-[1,1′-biphenyl]-4-yl)methyl)piperazine-1-carboxylate] |  |  |  | 100 to 1000 nM
